Laboratory results: patent publication US12023319B2, “Carboxylic acid aromatic amides” (priority 2016, dated 2024)

What was measured:
[1] = system: Bradykinin B1 agonist-induced secretion of IL-6; assay: Bradykinin B1 agonist-induced secretion of IL-6 in human IMR-90 cells; format: cell-based; conditions: 30 min compound, then 0.1 μM Lys-[Des-Arg9]Bradykinin and 0.1 μM Sar-[D-Phe8]-des-Arg9-Bradykinin for 5 hours
Text: 2. Inhibitory Activity on Bradykinin B1 Agonist-Induced Secretion of IL-6 and IL-8 in Human IMR-90 Cells
The effect of the Compound Examples on secretion of the cytokine IL-6 and IL-8 has been investigated in the human foetal lung fibroblast IMR-90 cell line. Here the induction of the cytokine secretion was induced by the Bradykinin B1 agonists Lys-[Des-Arg9]Bradykinin (CAS 71800-36-7, Tocris Bioscience) and Sar-[D-Phe8]-des-Arg9-Bradykinin (CAS 126959-88-4, Tocris Bioscience) leading to the activation of the Bradykinin B1-driven signalling pathway. The inhibitory activity of the tested Compound Examples on Bradykinin B1 agonist-induced secretion of IL-6 and IL-8 is indicative for the compounds' prominent anti-inflammatory mode of action in kinin driven inflammation.
IMR-90 cells were cultured in Eagle's Minimum Essential Medium (EMEM) containing 2 mM L-glutamine, 1 g/L glucose, 1.5 g/L NaHCO3, 1 mM sodium pyruvate and non-essential amino acids (ATCC, 30-2003™) supplemented with 10% FBS (Biochrom, S0615) and 50 U/mL Penicillin, 50 μg/mL Streptomycin (PAA, P11-010). The assay was performed in EMEM and a cell density of […] IMR-90 cells/96-well. The Compound Examples have been serial diluted in 100% DMSO and evaluated at 8 different concentrations within the range of 3 nM and 10 μM and a final DMSO concentration of 0.4%. The IMR-90 cells have been incubated with the respective concentration of the compound for 30 min. The enhanced secretion of IL-6 and IL-8 was induced by the stimulation of these cells with 0.1 μM Lys-[Des-Arg9]Bradykinin (Tocris, catalogue no. 3225) and 0.1 μM Sar-[D-Phe8]-des-Arg9-Bradykinin (Tocris, catalogue no. 3230) for 5 hours at 37° C. and 5% CO2. Further, cells have been treated with Lys-[Des-Arg9]Bradykinin and Sar[D-Phe8]-des-Arg9-Bradykinin as neutral control and with 0.1% DMSO as inhibitor control. The amount of IL-6 and IL-8 in the supernatant was determined using the Human ProInflammatory Panel II (4-Plex) (MSD, K15025B) according to manufacturer's instruction. Briefly, supernatants were added onto assay plates and incubated at room temperature for 1-2 h with vigorous shaking at 600 rpm. Detection antibodies were then added onto the supernatants and incubated at room temperature for an additional 1-2 h with vigorous shaking at 600 rpm. Plates were washed three times with phosphate-buffered saline (PBS; 137 mM NaCl, 2.7 mM KC1, 6.5 mM Na2HP04, 1.7 mM KH2P04) containing 0.05% Tween-20 (Bio-Rad, 161-0781) and electrochemiluminescence detected using the MSD Sector Imager 6000 plate reader. The cell viability was measured using the CellTiter-Glo Luminescent Assay (Promega, G7571) following the manufacturers protocol. Briefly, the CellTiter-Glo Reagent was diluted with PBS (1:1) and added directly to cells. After incubation and shaking for 10 minutes luminescent signal was measured which is proportional to the amount of ATP present.
The effect of the compound on the amount of secreted cytokine has been calculated as 100/(measured cytokine concentration of neutral control-measured cytokine concentration of inhibitor control)*(measured cytokine concentration of compound dose-measured cytokine concentration of inhibitor control). IC50 values are determined using 4-parameter-fit.
The Compound Examples were tested in triplicates per plate and the inhibitory activity was determined as the relation between neutral and inhibitor control in percent. IC50 values were calculated using the 4-parameter logistic model.

Male Sprague Dawley rats = assay: Rat CFA in vivo model (mechanical hyperalgesia, paw withdrawal threshold); conditions: 2 hours post-compound
Protocol: Male Sprague Dawley rats were used. Mechanical hyperalgesia was induced by injecting 25 μL of Complete Freund's Adjuvant (CFA) into the plantar surface of one hind paw. Mechanical hyperalgesia was measured using the Pressure Application Measurement apparatus (Ugo Basile, Gemonio, Italy). Briefly, a linearly increasing pressure was applied to an area of ˜50 mm^2 of the plantar side of the hind paw until a behavioural response (paw withdrawal) was observed or until the pressure reached 1000 gf. The pressure at which the behavioural response occurred was recorded as the “Paw Withdrawal Threshold” (PWT). Both CFA-injected and contralateral PWTs were determined for each rat, in each treatment group and at each time point of the studies. The Compound Examples were administered orally in a vehicle of dimethylsulfoxide (DMSO), Polyethylenglycol (PEG) and 2-hydroxypropyl-beta-cyclodextrin (HPCD) (v/v/v=3:20:77). Rats received a first dose of […] of Compound Example per kg body weight 1 hour before CFA injection and a second dose 24 hours after the CFA injection. Mechanical hyperalgesia testing was performed approximately 2 hours before CFA injection, then 2 and 4 hours after the second dose of Compound Example (i.e. 26 and 28 hours after CFA treatment). Data were expressed as the mean±S.D. Area Under the Curve (AUC) of PWTs (defined in table 3 as “AUC of Paw withdrawal threshold (AUC 0-4 hours) post-vehicle” with respect to vehicle group or “AUC of Paw withdrawal threshold (AUC 0-4 hours) post-drug” with respect to Compound Example). Data were analysed by performing a one-way ANOVA followed by a Dunnett's post hoc test. For p values less than 0.05 the results were deemed to be statistically significant.

Female Brown Norway rats = assay: Rat model for endometriosis, late phase (15 day); format: in vivo; conditions: rat 15 day endometriosis model, once daily p.o. 5, 30, 60 mg/kg; FIG. 5-6
Protocol: 5. Rat Model for Endometriosis, Late Phase Female Brown Norway rats (Charles-River) were treated with Compound Example 3 (doses: 5 mg/kg, 30 mg/kg, 60 mg/kg) or vehicle alone (10% DMSO+90% phosphate buffered saline (PBS). 2 h later all animals got under deep anesthesia a transplantation of 6 uterus pieces in the peritoneal cavity. The tissue was obtained from donor animals which were pre-treated with 3 μg s.c. Estradiol for 2 days to guarantee standardized conditions of the uterus tissue. The animals were treated once daily p.o. with Compound Example 3 (doses: 5 mg/kg, 30 mg/kg, 60 mg/kg) or respective vehicle (10% DMSO+90% phosphate buffered saline (PBS). 15 days later the animals were sacrificed and the transplants as surrogate endometriosis lesion tissue were analyzed for markers of lesion activity (inflammatory cytokines). This approach is mimicking the long term effect on established inflammation in endometriosis. Analysis For ex vivo cytokine analysis, animals were sacrificed and tissues (endometriosis lesions) were frozen at −80° C. […] After centrifugation at 13.000 U/min (Eppendorf) supernatants were analyzed for cytokine levels using Bio-Plex Pro™ Rat Cytokine 24-plex (Bio Rad Assay #171K1001M) or the Bio-Plex Pro™ Mouse Cytokine 23-Plex (Bio Rad Assay #M600009RDPD) according to the manufacturer's protocols.

Row | IC50 [1] [µM] | Structure (SMILES) | further results
1 | 0.149 | O=C(O)c1cc(NC(=O)C2(c3ccc(C(F)(F)F)cc3F)CC2)ccc1-c1cc2ccccc2s1 [Example 1, 2-(1-Benzothiophen-2-yl)-5-[({1-[2-fluoro-4-(trifluoromethyl)phenyl]cyclopropyl}carbonyl)amino]benzoic acid] | –
2 | 0.113 | CCC(F)(F)c1ccc(-c2ccc(NC(=O)C3(c4ccc(C(F)(F)F)cc4F)CC3)cc2C(=O)O)cn1 [Example 2, 2-[6-(1,1-Difluoropropyl)pyridin-3-yl]-5-[({1-[2-fluoro-4-(trifluoromethyl)-phenyl]cyclopropyl}carbonyl)amino]benzoic acid] | –
3 | 0.29 | O=C(O)c1cc(NC(=O)C2(c3ccc(OC(F)(F)F)cc3F)CC2)ccc1-c1ccc(C(F)F)nc1 [Example 5, 2-[6-(Difluoromethyl)pyridin-3-yl]-5-[({1-[2-fluoro-4-(trifluoromethoxy)phenyl]cyclopropyl}carbonyl)amino]benzoic acid] | –
4 | 0.443 | O=C(O)c1cc(NC(=O)C2(c3ccc(C(F)(F)F)cc3F)CC2)ccc1-c1ccc(C(F)(F)F)nc1 [Example 6, 5-[({1-[2-Fluoro-4-(trifluoromethyl)phenyl]cyclopropyl}carbonyl)amino]-2-[6-(trifluoromethyl)pyridin-3-yl]benzoic acid] | –
5 | 0.6 | O=C(O)c1cc(NC(=O)C2(c3ccc(C(F)(F)F)cc3F)CC2)cc(F)c1-c1ccc(C(F)(F)F)nc1 [Example 29, 3-Fluoro-5-[({1-[2-fluoro-4-(trifluoromethyl)phenyl]cyclopropyl}carbonyl)amino]-2-[6-(trifluoromethyl)pyridin-3-yl]benzoic acid] | –
6 | 0.07 | O=C(O)c1cc(NC(=O)C2(c3ccc(C(F)(F)F)cc3F)CC2)cc(F)c1-c1cnn(C2CCC2)c1 [Example 42, 2-(1-Cyclobutyl-1H-pyrazol-4-yl)-3-fluoro-5-[({1-[2-fluoro-4-(trifluoromethyl)phenyl]cyclopropyl}carbonyl)amino]benzoic acid] | –

Row | Structure (SMILES) | IC50 [1] [µM] | further results
7 | O=C(O)c1cc(NC(=O)C2(c3ccc(C(F)(F)F)cc3F)CC2)ccc1-c1cnn(C2CCC2)c1 [Example 3, 2-(1-Cyclobutyl-1H-pyrazol-4-yl)-5-[({1-[2-fluoro-4-(trifluoromethyl)phenyl]cyclopropyl}carbonyl)amino]benzoic acid] | 0.047 | Paw withdrawal threshold 2 hours post-compound (Male Sprague Dawley rats; 0.75 mg/kg p.o.): 659 ± 20 gf (ns); Paw withdrawal threshold 2 hours post-compound (Male Sprague Dawley rats; 3 mg/kg p.o.): 782 ± 50 gf (****); Paw withdrawal threshold 2 hours post-compound (Male Sprague Dawley rats; 15 mg/kg p.o.): 812 ± 44 gf (****); Paw withdrawal threshold 2 hours post-compound (Male Sprague Dawley rats; 60 mg/kg p.o.): 885 ± 30 gf (****); expression of inflammatory cytokines in the lesions (IL-1 alpha, IL-1 beta) (Female Brown Norway rats): decreased
